{
  "source": "patent US20250367132A1",
  "about": "“SOLID LIPID NANOPARTICLES FOR ENCAPSULATION AND DELIVERY OF BIOACTIVE COMPOUNDS AND METHODS OF MAKING THE SAME” (Yubeck, Inc., priority 2024, published 2025)",
  "key": {"[1]": {"conditions": "cited from earlier work"}, "[2]": {"assay": "Dynamic light scattering (DLS): mean particle size and polydispersity index", "format": "physicochemical", "description": "SLNs are characterized by particle size distribution, polydispersity index (PDI), surface charge (zeta potential), encapsulation efficiency (EE %), and loading capacity (LC %), all of which influence their stability, bioavailability, and controlled release properties. Particle size distribution is measured using dynamic light scattering (DLS), nanoparticle tracking analysis (NTA), or any equivalent method, ensuring SLN sizes range from 10 nm approximately 1000 nm. PDI, measured by DLS or NTA indicates uniformity of particle size distribution. Zeta potential, measured using […], electrophoretic light scattering (ELS), or an equivalent method, must have an absolute value of ≥25 mV, ensuring sufficient electrostatic repulsion to maintain colloidal stability. Encapsulation efficiency (EE %) and loading capacity (LC %) are measured using UV-Vis Spectroscopy, high performance liquid chromatography, or liquid chromatography mass spectrometry (LC-MS), amino acid analysis (AAA), or any equivalent method, with target values defined for each bioactive compound.\nAn example of the manufacturing process of whole Spirulina SLNs is disclosed below. In accordance with an aspect of the present invention, palmitic acid is dissolved in 100% ethanol (1.5 mg/mL) and heated to 70° C. Natural and sustainable ingredients that can be used as alternatives to palmitic acid, include stearic acid, behenic acid, lauric acid, cetyl alcohol, cocoa butter, shea butter, carnauba wax, candelilla wax, beeswax, and glycerol monostearate (GMS). Other natural lipids, such as oleic acid, linoleic acid, alpha-linolenic acid, gamma-linolenic acid, triglycerides such as medium-chain triglycerides (MCTs) or long-chain triglycerides (LCTs), and natural oils such as coconut oil, olive oil, and sunflower oil. Additional naturally derived lipid components such as 1-monolaurin, phosphatidylcholine, and phosphatidylethanolamine may also be used. […] The Spirulina SLNs are quantified using […] to measure the mean particle, PDI, and zeta potential. […]"}},
  "data": [
    {"compound": "phycocyanin", "values": [
      {"measurement": "Acceptable Daily Intake (ADI)", "setting": "[1]; FDA, color additive petitions", "value": "1.0-1.8 g/p/d"},
      {"measurement": "No Observed Effect Level (NOEL)", "setting": "[1]; GRAS submission", "value": "108-184.5 g/p/d"}
    ]},
    {"compound": "C=C1CC[C@H](O)C/C1=C/C=C1\\CCC[C@]2(C)[C@@H]([C@H](C)CCCC(C)C)CC[C@@H]12", "note": "[vitamin D3, cholecalciferol]", "values": [
      {"measurement": "PDI", "setting": "[2]; non-encapsulated, in solution", "value": "0.10±0.01", "unit": "%"},
      {"measurement": "PDI", "setting": "[2]; unencapsulated, before SLN fabrication", "value": "10.17±2.26"},
      {"measurement": "mean particle size (initial diameter)", "setting": "[2]; unencapsulated, in ethanol, before SLN fabrication", "value": "124.6±0.1", "unit": "nm"}
    ]}
  ]
}
